This is an account of results in US20250281483A1, “TRANSCRIPTION FACTOR EB ACTIVATORS AND USES THEREOF” (Astellas Engineered Small Molecules US, Incorporated, priority 2022, published 2025).

Some results are limits rather than exact numbers.

Data set [1] can be described thus: In Vitro Liver Microsomes Metabolic Stability Assay, mouse. The format is in vitro ADME. The note with it: mouse liver microsomes 0.5 mg/mL, 1 μM compound, NADPH, 0 and 30 min; scale-up CLint; read-out: CLint, Mouse LM. On the procedure: (§1) In Vitro Liver Microsomes Metabolic Stability Assay of Different Species
(§2) 1. The liver microsomes were stored at −80° C. prior to use.
(§3) 2. The master solution was prepared according to Table 3.
(§4) 3. 40 μL of 10 mM NADPH solution was added to each well. The final concentrations of NADPH was 1 mM. The mixture was pre-warmed at 37° C. for 5 minutes. The negative control samples were prepared by replacing NADPH solutions with 40 μL of ultra-pure H2O. The negative control was used to exclude the misleading factor that resulted from instability of chemical itself. Samples with NADPH were prepared in duplicate. Negative controls were prepared in singlet.
(§5) 4. The reaction was started with the addition of 2 μL of 200 μM control compound or test compound solutions. Verapamil was used as positive control in this study. The final concentration of test compound or control compound was 1 μM.
(§6) 5. Aliquots of 50 μL were taken from the reaction solution at 0 and 30 minutes. The reaction was stopped by the addition of 4 volumes of cold acetonitrile with Internal Standard (100 nM alprazolam, 200 nM imipramine, 200 nM labetalol and 2 μM ketoprofen). Samples were centrifuged at 3, 220 g for 40 minutes. Aliquot of 90 μL of the supernatant was mixed with 90 μL of ultra-pure H2O and then used for LC-MS/MS analysis.
(§7) Peak areas were determined from extracted ion chromatograms. The slope value, k, was determined by linear regression of the natural logarithm of the remaining percentage of the parent drug vs. incubation time curve.
(§8) The in vitro half-life (in vitro t1/2) was determined from the slope value:
(§9) Conversion of the in vitro t1/2 (min) into the in vitro intrinsic clearance (in vitro CLint, in μL/min/mg protein) was done using the following equation (mean of duplicate determinations): […]
(§10) Conversion of the in vitro t1/2 (min) into the scale-up unbound intrinsic clearance (Scale-up CLint, in mL/min/kg) was done using the following equation (mean of duplicate determinations): […]

Data set [2] is described as follows: In Vitro Liver Microsomes Metabolic Stability Assay, human. The class given is in vitro ADME. The following applies: human liver microsomes 0.5 mg/mL, 1 μM compound, NADPH, 0 and 30 min; scale-up CLint; read-out: CLint, Human LM. On the procedure:
as §1, §2, §3, §4, §5, §6, §7, §8, §9, §10
(In general: Liver microsomes are vesicles of endoplasmic reticulum, rich in cytochrome P450 enzymes.)

Data set [3] can be described thus: In Vitro Liver Microsomes Metabolic Stability Assay, rat. The class given is in vitro ADME. The note with it: rat liver microsomes 0.5 mg/mL, 1 μM compound, NADPH, 0 and 30 min; scale-up CLint; read-out: CLint, Rat LM. The method, then:
as §1, §2, §3, §4, §5, §6, §7, §8, §9, §10

Data set [4] addresses T1, TFEB (Homo sapiens, UniProt P19484).
T1 sequence (P19484 1-476): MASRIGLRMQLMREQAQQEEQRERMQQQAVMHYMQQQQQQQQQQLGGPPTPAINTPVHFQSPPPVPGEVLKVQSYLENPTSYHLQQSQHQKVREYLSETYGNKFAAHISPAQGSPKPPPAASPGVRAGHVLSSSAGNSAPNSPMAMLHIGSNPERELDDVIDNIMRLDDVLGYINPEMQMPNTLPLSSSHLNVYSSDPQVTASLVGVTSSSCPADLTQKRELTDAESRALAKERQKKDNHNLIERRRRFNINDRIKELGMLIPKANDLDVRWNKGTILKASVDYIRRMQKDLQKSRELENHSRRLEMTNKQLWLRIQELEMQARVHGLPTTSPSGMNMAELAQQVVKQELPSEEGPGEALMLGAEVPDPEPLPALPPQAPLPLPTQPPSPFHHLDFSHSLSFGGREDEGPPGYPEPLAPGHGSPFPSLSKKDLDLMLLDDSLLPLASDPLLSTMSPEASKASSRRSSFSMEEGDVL
Kind of data set: Tfeb-Translocation Assay HEK-293T-oEX-Tfeb-GFP Cell Line. The class given is cell-based. The following applies: HEK-293T-oEX-TFEB-GFP cells; translocation positive cells ratio; read-out: TFEB Translocation EC50. The method in brief:
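HEK-293T cells overexpressing Tfeb-GFP were treated for 6 or 18 h at 37 °C with 10-point 3- or 2-fold dilutions from 50 µM (Torin 1 reference from 300 nM), then PFA-fixed and Hoechst-stained. Cells with nuclear/perinuclear EGFP ratio 1.2 among EGFP-positive cells were scored as translocation-positive; DMSO set to ~15% for normalization.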

On to `Cc1nc2ccn(Cc3ccco3)c(=O)c2cc1C(=O)NCC1CCC(Cl)CC1` (centres unmarked) [Comparator 2, reference compound], for which the CLint scaled at 1 μM in data set [1] was determined as 939 mL/min/kg; in data set [2], 77 mL/min/kg; in data set [3] it was 318 mL/min/kg.

A word on the EC50: it is the midpoint of the concentration-response curve. Consider `Cc1ccc(CNC(=O)c2cc3c(=O)n(Cc4ccccc4)ccc3nc2C)o1` [Example 1, 6-benzyl-2-methyl-N-((5-methylfuran-2-yl)methyl)-5-oxo-5,6-dihydro-1,6-naphthyridine-3-carboxamide], for which the values for the CLint scaled at 1 μM in data set [1], in data set [2] and in data set [3] were 760 mL/min/kg, 57 mL/min/kg and 319 mL/min/kg, respectively. In data set [4], the concentration giving a half-maximal response (EC50) was below 100 nM.

As for `Cc1cccc(CNC(=O)c2cc3c(=O)n(Cc4ccccc4)ccc3nc2C)c1` [Example 5, 6-benzyl-2-methyl-N-(3-methylbenzyl)-5-oxo-5,6-dihydro-1,6-naphthyridine-3-carboxamide], the figures for the CLint scaled at 1 μM in data set [1], in data set [2] and in data set [3] were 1800 mL/min/kg, 171 mL/min/kg and 1040 mL/min/kg, respectively. The concentration for a half-maximal effect (EC50) in data set [4] was in the range of 100 to 1000 nM.

For `Cc1cccc(CNC(=O)c2cc3c(=O)n(Cc4ccccc4)ccc3nc2C)n1` [Example 6, 6-benzyl-2-methyl-N-((6-methylpyridin-2-yl)methyl)-5-oxo-5,6-dihydro-1,6-naphthyridine-3-carboxamide], the CLint scaled at 1 μM in data set [1] is 414 mL/min/kg; in data set [2], 16 mL/min/kg; in data set [3] it was 217 mL/min/kg. In addition, in data set [4], the concentration for a half-maximal effect (EC50) was 100 to 1000 nM.

`Cc1nc2ccn(Cc3ccccc3)c(=O)c2cc1C(=O)NCc1ccccn1` [Example 7, 6-benzyl-2-methyl-5-oxo-N-(pyridin-2-ylmethyl)-5,6-dihydro-1,6-naphthyridine-3-carboxamide]: the CLint scaled at 1 μM was 91 mL/min/kg in data set [1], 2 mL/min/kg in data set [2] and 28 mL/min/kg in data set [3]. In addition, the EC50 in data set [4] lay within 100 to 1000 nM.

Take `Cc1nc2ccn(Cc3ccccc3)c(=O)c2cc1C(=O)NCc1ccccc1` [Example 17, N,6-dibenzyl-2-methyl-5-oxo-5,6-dihydro-1,6-naphthyridine-3-carboxamide]: the values for the CLint scaled at 1 μM in data set [1], in data set [2] and in data set [3] were 470 mL/min/kg, 15 mL/min/kg and 163 mL/min/kg, respectively. In data set [4], the EC50 was in the range of 100 to 1000 nM.

For the compound `Cc1nc(CNC(=O)c2cc3c(=O)n(Cc4ccccc4)ccc3nc2C)co1` [Example 18, 6-benzyl-2-methyl-N-((2-methyloxazol-4-yl)methyl)-5-oxo-5,6-dihydro-1,6-naphthyridine-3-carboxamide], the CLint scaled at 1 μM amounted to 140 mL/min/kg in data set [1], 4 mL/min/kg in data set [2] and 73 mL/min/kg in data set [3]. Moreover, the EC50 in data set [4] fell in the range of 100 to 1000 nM.

On to `Cc1nc2ccn(Cc3ccc(Cl)cc3)c(=O)c2cc1C(=O)NCc1ccccn1` [Example 31, 6-(4-chlorobenzyl)-2-methyl-5-oxo-N-(pyridin-2-ylmethyl)-5,6-dihydro-1,6-naphthyridine-3-carboxamide], for which the CLint scaled at 1 μM in data set [1] worked out at 132 mL/min/kg; in data set [2], 1 mL/min/kg; in data set [3] it was 55 mL/min/kg. In addition, the EC50 in data set [4] is below 100 nM.

`Cc1nc2ccn(Cc3ccccc3)c(=O)c2cc1C(=O)NCc1cc(F)c(F)cn1` [Example 50, 6-benzyl-N-((4,5-difluoropyridin-2-yl)methyl)-2-methyl-5-oxo-5,6-dihydro-1,6-naphthyridine-3-carboxamide]: the CLint scaled at 1 μM in data set [1] was 124 mL/min/kg; in data set [2] it was 3 mL/min/kg; in data set [3], 70 mL/min/kg. In addition, the concentration giving a half-maximal response (EC50) in data set [4] was below 100 nM.
